From US20250295656A1, “COMBINATION OF LURBINECTEDIN AND IMMUNE CHECKPOINT INHIBITORS” (priority 2020, published 2025)

How the values were obtained:
[1] = tested on: eukaryotic translation initiation factor 2 alpha (eIF2α); assay: eIF2α phosphorylation by immunofluorescence with phosphoneoepitope-specific antibody; format: cell-based, human; conditions: U2OS; 10, 50 or 100 nM; 6 hours
Protocol: Human osteosarcoma U2OS cells were treated with 10, 50 or 100 nM lurbinectedin (Lurbi) for 6 hours. Thapsigargin (Thaps, 3 μM) was used as a positive control. The cells were fixed with 3.7% PFA and DNA was stained with 1 μM Hoechst 33342. Following the phosphorylation of the eukaryotic translation initiation factor 2 alpha (eIF2a) was assessed with phosphoneoepitope-specific antibody and was monitored by means of automated microscopy as an increase in cytoplasmic fluorescence intensity. (a,b) The level of transcription was measured in U2OS cell treated as above with Lurbi. The transcription inhibitor actinomycin D (ActD) was used as a control. The cells were fixed as above and following the colocalization of nucleolin and fibrillarin was assessed as an indicator for transcriptional activity (c,d) Scale bar equals 10 μm and bar charts depict mean values±SD of quadruplicate assessments (*p<0.01; *p<0.001, two-tailed Student's t test).
In a systematic screening campaign, the capacity of lurbinectedin to induce immunogenic cell death in cancer cells was assessed in human osteosarcoma U2OS cells stably expressing fluorescent biosensors for the detection of CALR-relocation (as a surrogate marker for CALR surface exposure), HMGB1 release and Type I IFN responses together with U2OS WT cells stained with the ATP-sensitive dye quinacrine. […]

[2] = tested on: MCA205 tumours; assay: Established MCA205 tumours in immunodeficient mice; format: in vivo; conditions: athymic (nu/nu) mice; 0.18 mg/kg i.v. day 1, 7 and 14
Protocol: Live MCA205 cells were injected subcutaneously (s.c.) into immunocompetent C57BL/6 mice or immunodeficient nu/nu mice as depicted in the scheme in (a) When tumours became palpable, mice were intravenously ([…]). Tumour growth was assessed regularly for the following 30 days. Data is depicted as tumour growth curves (b,d) and overall survival plots (c,e). Data were analyzed with TumGrowth.
(§1) In order to assess the capacity of lurbinectedin to stimulate anticancer immunity in a monotherapeutic approach and to convert tumour cells into a therapeutic vaccine we exposed murine fibrosarcoma cells to the drug in vitro (in conditions previously established to induce a sufficient amplitude of cell death) and then injected the dying cancer cells into syngeneic immunocompetent mice. […] Next we evaluated the effect of lurbinectedin on established cancers growing on immunocompetent or immunodeficient mice. […]
(§2) Six- to eight-week-old female wild-type C57BL/6 and nu/nu mice were obtained from Envigo France (Huntingdon, UK) and were kept in the animal facility at the Gustave Roussy Campus Cancer in a specific pathogen-free and temperature-controlled environment with 12 h day, 12 h night cycles and received food and water ad libitum. […] Animals were monitored and tumour growth documented regularly until end-points were reached. […]

[3] = tested on: MCA205 fibrosarcoma; assay: Anticancer vaccination with lurbinectedin-treated dying MCA205 cells and rechallenge; format: in vivo, immunocompetent C57BL/6 mice; conditions: MCA205 cells treated with 1 μM lurbinectedin injected s.c., rechallenge with live cells one week later
Protocol: MCA205 cells treated for 20 h with 1 μM lurbinectedin were inoculated subcutaneously (s.c.) into immunocompetent C57BL/6 mice, which were rechallenged 7 days later s.c. with living cells of the same type. The tumour growth was measured until endpoints were reached and overall survival was evaluated regularly for the following 30 days (n=6). (*p<. 01, two-tailed Student's t test, compared to all other groups). Data were analyzed with TumGrowth.
as §1, §2

[4] = tested on: MCA205 tumours; assay: Established MCA205 tumours in immunocompetent mice; format: in vivo, immunocompetent C57BL/6 mice; conditions: immunocompetent C57BL/6, 0.18 mg/kg i.v. day 1, 7 and 14
Protocol: Live MCA205 cells were injected subcutaneously (s.c.) into immunocompetent C57BL/6 mice or immunodeficient nu/nu mice as depicted in the scheme in (a) When tumours became palpable, mice were intravenously (i.v.) injected with […] lurbinectedin (on day 1, 7 and 14). Tumour growth was assessed regularly for the following 30 days. Data is depicted as tumour growth curves (b,d) and overall survival plots (c,e). Data were analyzed with TumGrowth.
as §1, §2

COc1ccc2[nH]c3c(c2c1)CCN[C@]31CS[C@@H]2c3c(OC(C)=O)c(C)c4c(c3[C@H](COC1=O)N1[C@@H]2[C@H]2c3c(cc(C)c(OC)c3O)C[C@@H]([C@@H]1O)N2C)OCO4 [lurbinectedin]
phosphorylation of eIF2α [1]: dose-dependent phosphorylation
therapeutic effect (tumour growth, overall survival) [2]: lost
overall survival after rechallenge [3]: increase
tumour growth after rechallenge ([3]; p=0.0094): significantly reduced
overall survival [4]: increased
tumour growth ([4]; vs control animals, p<0.0001): significantly reduced
